Measurements from patent US20080286815A1, “SPECTROPHOTOMETRIC ASSAY FOR HUMAN HISTONE DEACETYLASE 8” (THE UNIVERSITY OF AKRON, priority 2007, published 2008).
Each block holds one molecule with its values, some of them ahead of it. Ends that are not written are not given here.

How the values were obtained:
[1] = tested on: HeLa nuclear extracts enriched in HDAC1 and 2; experiment: HPLC-based and DTNB-based assays with HeLa nuclear extracts; assay type: biochemical, human; conditions: for dethioacetylation by HeLa nuclear extracts: HDAC8 replaced with HeLa nuclear extracts, HPLC-based and DTNB-based assay formats; for kobs (deacetylation by HeLa nuclear extracts): 30 min; for kobs (deacetylation by HeLa nuclear extracts) / substrate turnover: HPLC analysis; for substrate turnover: at 30 min
Procedure: (§1) HPLC-based enzymatic assay. The HPLC data shown in FIG. 4 was generated using the following procedure. The HDAC8-catalyzed dethioacetylation reaction was performed in the same HDAC8 assay solution as above-described, except that no thioacetic acid was added but purified HDAC8 and its substrate (i.e. the above-described peptide ii) were added to final concentrations of 375 nM and 0.3 mM, respectively. An enzymatic reaction was initiated by the addition of HDAC8 at room temperature and was allowed to be incubated at room temperature until quenched at different time points with the following stop solution: 3.2 M guanidinium chloride in 100 mM of sodium phosphate (pH 6.8). One portion (40 uL) of the HDAC8 assay mixture was quenched with 80 uL of the above stop solution, and was analyzed as set forth above by RP-HPLC with a C18 analytical column (100 Å, 0.46×25 cm), eluting with the following gradient of double deionized water containing 0.05% (v/v) trifluoroacetic acid (mobile phase A) and acetonitrile containing 0.05% (v/v) trifluoroacetic acid (mobile phase B): linear increase from 0% B to 35% B from 0-40 min (1 mL/min), and ultraviolet (UV) monitoring at 214 nm. The enzymatically formed dethioacetylated product (i.e. the above-referenced peptide i) was confirmed by its comigration with the chemically synthesized authentic sample and by mass spectrometric analysis with MALDI-TOF, and was quantified by HPLC peak integration and comparison with that of the synthetic authentic sample. The same assay protocol was used when the HeLa nuclear extracts were used instead of human HDAC8. Nearly same assay protocols were used when purified HDAC1 and HDAC2 were employed instead of HDAC8, with the following exceptions: i) For HDAC1 assays, 50 mM Tris.HCl (pH 8.0) was used instead of 25 mM Tris.HCl (pH 8.0); ii) HDAC2 assays were performed at 30° C. instead of RT; iii) HDAC1 and HDAC2 assay solutions were all quenched with the following stop solution: 1.0 M HCl and 0.16 M acetic acid. These changes were instituted to more clearly assess the selectivity.
DTNB-based enzymatic assay. The DTNB data shown in FIG. 4 was generated using the following procedure. A second portion (300 µL) of the above HDAC8 assay mixture was quenched with 600 µL of the stop solution: 3.2 M guanidinium chloride in 100 mM of sodium phosphate (pH 6.8), and was analyzed by the DTNB-based assay procedure according to the invention, i.e. 60 min after the quench and DTNB (100 µL) addition, A412 was recorded for each sample derived at different time points of the same assay reaction. Again, the same assay protocol was used when the HeLa nuclear extracts were used instead of human HDAC8. To measure the kinetic parameters for the thioacetyl-lysine p53 peptide as an in vitro HDAC8 substrate, all the assay reactions contained 375 nM of HDAC8, a range of substrate concentrations varied around the Km value, and were allowed to proceed at room temperature for 1 hour before quenching. Reaction velocities were determined under initial condition (substrate turnover <10%). This experiment was performed twice, and each duplicate measurement agreed within 20%. By using a non-linear least squares approach with the computer program Kaleidagraph (Reading, Pa., USA), kinetic parameters (kcat and Km) were derived from the Michaelis-Menten plot based on the experimental data.
Assay with HeLa nuclear extracts. In order to examine the selectivity of our newly developed DTNB-based spectrophotometric assay among different classical HDAC enzymes, we initially performed both the HPLC-based and the DTNB-based assays with the HeLa nuclear extracts enriched in HDAC1 and 2. The procedures for the HDAC8 assay were followed.

[2] = biological target: purified human HDAC1 (Homo sapiens, UniProt Q13547); experiment: HPLC-based assay with purified HDAC1; assay type: biochemical; conditions: for dethioacetylation by HDAC1: purified HDAC1, HPLC-based assay format
Procedure: as §1, with “selectivity. […]” for “selectivity.”

[3] = biological target: purified human HDAC2 (Homo sapiens, UniProt Q92769); experiment: HPLC-based assay with purified HDAC2; assay type: biochemical; conditions: for dethioacetylation by HDAC2: purified HDAC2, 30° C., HPLC-based assay format
Procedure: as §1, with “selectivity. […]” for “selectivity.”

[4] = listed as thioacetyl-lysin peptide

Chain of purified human HDAC1 (Q13547 whole entry): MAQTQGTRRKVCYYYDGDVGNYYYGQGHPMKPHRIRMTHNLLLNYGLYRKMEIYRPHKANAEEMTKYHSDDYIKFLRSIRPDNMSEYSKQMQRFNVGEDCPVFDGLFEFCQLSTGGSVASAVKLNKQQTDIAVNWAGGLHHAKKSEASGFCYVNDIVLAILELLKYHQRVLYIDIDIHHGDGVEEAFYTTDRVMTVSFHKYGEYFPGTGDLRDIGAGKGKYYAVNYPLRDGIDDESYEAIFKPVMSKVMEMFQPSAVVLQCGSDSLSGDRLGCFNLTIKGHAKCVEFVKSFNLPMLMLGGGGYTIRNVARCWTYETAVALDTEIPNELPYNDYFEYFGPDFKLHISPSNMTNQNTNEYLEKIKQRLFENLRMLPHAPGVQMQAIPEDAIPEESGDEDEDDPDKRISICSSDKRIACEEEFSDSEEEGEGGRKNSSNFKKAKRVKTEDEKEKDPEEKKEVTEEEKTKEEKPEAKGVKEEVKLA
Chain of purified human HDAC2 (Q92769 whole entry): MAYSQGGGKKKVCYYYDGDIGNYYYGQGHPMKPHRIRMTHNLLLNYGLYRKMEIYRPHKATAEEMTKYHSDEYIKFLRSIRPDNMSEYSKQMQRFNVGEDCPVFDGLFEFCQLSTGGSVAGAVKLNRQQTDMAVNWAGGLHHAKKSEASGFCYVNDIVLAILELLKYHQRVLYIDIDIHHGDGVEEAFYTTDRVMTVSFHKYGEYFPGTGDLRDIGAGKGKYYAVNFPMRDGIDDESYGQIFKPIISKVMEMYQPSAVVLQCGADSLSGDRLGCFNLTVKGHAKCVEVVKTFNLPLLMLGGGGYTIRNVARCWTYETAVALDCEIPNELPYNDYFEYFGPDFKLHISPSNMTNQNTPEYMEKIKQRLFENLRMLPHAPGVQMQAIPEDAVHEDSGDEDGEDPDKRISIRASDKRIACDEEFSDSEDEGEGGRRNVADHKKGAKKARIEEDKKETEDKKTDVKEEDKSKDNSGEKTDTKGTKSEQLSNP

Molecule: AcNH—RH(ThAcK)(ThAcK)—CONH2
dethioacetylation by HeLa nuclear extracts [1]: no detectable dethioacetylation

Molecule: AcNH—RH(AcK)—(AcK)—CONH2
kobs (deacetylation by HeLa nuclear extracts) [1]: 0.29±0.02 uM/(min·4 uL of the nuclear extracts)

dethioacetylation by HDAC1 [2]: no detectable dethioacetylation
dethioacetylation by HDAC1 [2, 4]: did not serve as a substrate
dethioacetylation by HDAC2 [3]: no detectable dethioacetylation
dethioacetylation by HDAC2 [3, 4]: did not serve as a substrate
Molecule: CSCC[C@H](NC(=O)[C@H](CC(C)C)NC(=O)[C@H](CCCCNC(C)=S)NC(=O)[C@H](CCCCN)NC(=O)[C@H](Cc1c[nH]cn1)NC(=O)[C@H](CCCNC(=N)N)NC(=O)[C@H](CO)NC(=O)[C@@H](NC(=O)[C@H](CO)NC(=O)[C@H](CCC(N)=O)NC(=O)CNC(=O)[C@H](CCCCN)NC(=O)[C@@H](N)CCCCN)[C@@H](C)O)C(=O)N[C@@H](Cc1ccccc1)C(=O)N[C@@H](CCCCN)C(=O)N[C@H](C(=O)N[C@@H](CCC(=O)O)C(=O)NCC(=O)O)[C@@H](C)O [thioacetyl-lysine p53 peptide, H2N-KKGQSTSRHK(ThAcK)LMFKTEG-COOH]
dethioacetylation by HeLa nuclear extracts [1]: no detectable dethioacetylation
dethioacetylation by HeLa nuclear extracts ([1]; listed as thioacetyl-lysine peptide): did not serve as a substrate

Molecule: acetyl-lysine p53 peptide: human p53 C-terminal peptide (amino acid residue 372-389) containing Nε-acetyl-lysine at the 382 position (KKGQSTSRHKK(Ac)LMFKTEG; UniProt P04637 372-389, looked up, fragment)
kobs (deacetylation by HeLa nuclear extracts) [1]: 0.23±0.01 uM/(min·4 uL of the nuclear extracts)
substrate turnover ([1]; 4 uL of the HeLa nuclear extracts (9 mg of protein per mL)): 2.3%
substrate turnover ([1]; 12 uL of the HeLa nuclear extracts (9 mg of protein per mL)): 6.5%
kobs (deacetylation by HDAC1) ([2]; purified HDAC1, at 2 h): 0.41 ± 0.23 min⁻¹
kobs (deacetylation by HDAC2) ([3]; purified HDAC2, at 30 min): 6.78 ± 2.39 min⁻¹
